Source: publication PMC6630718, “Discovery of Novel UV-Filters with Favorable Safety Profiles in the 5-Arylideneimidazolidine-2,4-dione Derivatives Group” (Molecules, 2019)

Key:
[1] = In vitro stability in mouse liver microsomes; assay type: in vitro ADME; details: mouse liver microsomes; for half-life at 20 µM / microsomal CLint at 20 µM: mouse; for half-life at 20 µM: pH 7.4, mouse liver microsomes 0.8 mg/mL, 20 µM compound, NADPH-regenerating system, 37 °C, read-out: t ½; for microsomal CLint at 20 µM: pH 7.4, mouse liver microsomes, calculated from t1/2
Method: Mouse liver microsomes (MLMs) were used to investigate the phase I metabolism of selected compounds (2c, 2d, 3b, 4g, 5a) and the reference substance BP-2. Samples composed of test compound (20 µM), MLMs (0.8 mg/mL) and potassium phosphate buffer (100 mM, pH 7.4) were preincubated prior to addition of NADPH-regenerating system. NADPH-regenerating system contained NADP, glucose-6-phosphate, glucose-6-phosphate dehydrogenase and potassium phosphate buffer (100 mM, pH 7.4). Control incubations were performed in the absence of the NADPH-regenerating system and in case of esters (2c, 2d, 3b and 4g) without the mouse liver microsomes solution to determine spontaneous hydrolysis. Incubations were conducted at 37 °C for at least 15 min up to 60 min. The reactions were stopped by the addition of 250 μL ice-cold methanol containing internal standard PTX (20 μM). The mixture was then centrifuged. Supernatant analysis was performed using UPLC/MS (Waters Corporation). The assays were repeated two times. The in vitro half times (t1/2) for test compounds were determined from the slope of the linear regression of ln % parent compound remaining versus incubation time. The calculated t1/2 was incorporated into the following equation to obtain intrinsic clearance: (Clint) = (volume of incubation [µL]/ protein in the incubation [mg]) × 0.693 / t1/2 [74].

[2] = Ultraviolet spectroscopy in methanol solutions; assay type: physicochemical; details: for Absorption Range: scan range 290–400 nm
Method: Spectra with a scan range of 290–400 nm were recorded in 50 or 25 μM methanol solutions, in 1 cm path length, 1.5 mL quartz cuvettes on a U-2800 double beam spectrophotometer (Hitachi, Tokyo, Japan) controlled by UV Solution version 2.2 software. The molar extinction coefficient at maximum absorption (εmax) of tested compounds was determined in methanol as the slope of the linear regression of absorbance vs. concentration of tested compound (from 10 to 50 μM or 2.5 to 30 μM).

[3] = In vitro photoprotection study of 2% (w/w) macrogol formulations on PMMA plates
Text: (§1) The composition of formulations and concentration of tested compounds were based on their limited solubility. N-monosubstituted compounds 2a–2e were insoluble at desirable concentrations in the typical solvents used in cosmetic formulations such as alcohols, triacetin, surfactants, and co-surfactants. To dissolve compounds 2a and 2b before incorporation to the formulation DMSO: Tween 20 (1:9 w/w) was used, for less soluble 2c–2e it was necessary to use DMSO alone as solvent. […] Thus the detailed composition of the formulations is as follows: F1–Tween 20 43.2%, PEG-400 25%, PEG-1500 25%, Triacetin 4.8%, tested compound 2%; F2–Tween 20 43.2%, PEG-400 25%, PEG-1500 25%, DMSO 4.8%, tested compound 2%; F3–PEG-400 25%, PEG-1500 25%, DMSO 48%, tested compound 2%. Considering the disadvantages of currently reported macrogol formulations and the low concentration achieved for the tested compounds (2%), we plan to work on cosmetic emulsions containing the most promising derivatives at higher concentrations as well as required excipients including preservatives, antioxidants, etc. This research will be carried out in the near future.
Tested compounds and commercial UV filters as reference standards were incorporated to a neutral macrogel formulation in the concentration of 2%. Prior to the incorporation, compounds 3a–3e and 4f–4h and reference UV-filters were dissolved in a triacetin:Tween 20 (1:9) solvent system. For compounds 2a–2e it was necessary to use DMSO. The final composition of the macrogol formulations is presented in the photoprotective activity section.
In vitro photoprotection study was performed according to EN ISO 24443:2012 [71] with slight modifications. Formulation with tested compound (32.5 mg) was applied on a polymethylmethacrylate plate (PMMA) with the application area 25 cm^2 and 5 µm roughness value to simulate the skin surface (Schonberg GmbH, Hamburg, Germany). As a reference a PMMA plate treated with approximately 15 µL of glycerin was used. Measurements were carried out by reflectance spectrophotometry with SPF-290AS Analyser (Solar Light Company, Glenside, PA, USA) equipped with integrating sphere controlled by WinSPF version X.X. software. For each sample two plates were prepared, absorbance measures were performed on 6 different positions of the plate from 290 to 400 nm with 1 nm steps. The results were expressed as an average of data from 12 scans.

[4] = Photostability in methanol solutions (solar light simulator); assay type: physicochemical; parameters: λmax pre-irradiation: unit not given beside the values; details: methanol solution; for % of initial AUC post-irradiation / λmax post-irradiation: 1h irradiation at 500 W/m2
Method: (§2) The photostability evaluation of compounds was performed both in methanol solutions and in macrogol formulations. Irradiation of samples according to previous studies was conducted for 1 h at 500 W/m^2 (cumulative dose of ultraviolet radiation 218 kJ/m^2) with solar light simulator (Suntest CPS+, Atlas, Linsengericht, Germany) equipped with an optical filter cutting off wavelengths shorter than 290 nm and IR-block filter to neutralize thermal effects. The UV absorption spectrum of the samples were analysed post-irradiation and compared with pre-irradiation results. UPLC-MS/MS analyses were also performed.
(§3) Methanol solutions were tested at concentration 25 or 50 µM in quartz cuvettes with the PTFE stopper to prevent evaporation or leaking of the solvent. Macrogol formulations (2% w/w) were tested on PMMA plates (1.3 mg/cm^2). After post-irradiation measure of UV absorption, exposed and unexposed plates were washed with 5 mL of methanol, then mixtures were filtered and analysed by UPLC-MS/MS. All analyses were performed in duplicates.

[5] = Photostability in macrogol formulations on PMMA plates (solar light simulator); assay type: physicochemical
Method: After irradiation of thin layer of formulations applied on PMMA plates, their photoprotective parameters were determined and compared with the pre-irradiation results. The study gives an overview on functional photostability of the tested compounds. It is an important test, because the photostability of some compounds in low concentrated solutions may meaningfully differ from results obtained for higher concentrations used in sunscreen products. […] In the present study both UVB and UVA-absorbers were tested, so the changes in SPFin vitro, UVA PF and AUC after irradiation are taken into account as a measure of photostability.
as §2, §3

[6] = Neurocytotoxicity, MTT assay; assay type: cell-based; details: human, SH-SY5Y neuroblastoma cells, highest concentration (50 µM), read-out: cell viability (% of control)
Method: For […] assays a human neuroblastoma cell line—SH-SY5Y (CRL-2266™, ATCC) and a human hepatocellular carcinoma cell line–HepG2, respectively have been used. Cells were seeded on 96-well plates at an initial density of 10,000 cells per well. Cells were cultured in standard conditions for 24 h and then study compounds were administrated at different concentrations (10–50 μM) for another 24 h. After incubation time cells viability was measured with MTT assay. For this purpose culture medium has been replaced for the fresh one and MTT reagent (3-(4,5-dimethylthiazol-2-yl)-2,5-diphenyltetrazolium bromide) has been added at the concentration 0.5 mg/mL. Cells were incubated with MTT reagent at 37 °C for 4 h. Then formazan crystals have been dissolved in DMSO solution and the absorbance has been measured at 570 nm. Experiments were conducted in triplicates. Values represent mean percent of viability (in the percent of control).

[7] = MTT cytotoxicity, skin panel model (melanocytes); assay type: cell-based; details: Primary Epidermal Melanocytes (PCS-200-013, ATCC), human primary dermal melanocytes, highest tested concentration (50 µM), read-out: cell viability (% of control)
Method: Primary Epidermal Melanocytes were cultured in Dermal Cell Basal Medium (ATCC) supplemented with Adult Melanocyte Growth Kit Components (ATCC), HaCaT and BJ cells were cultured in Dulbecco’s modified Eagle’s medium (DMEM; New York, NY, USA) and supplemented with 10% fetal bovine serum (FBS; Gibco, New York, NY, USA). Cell maintenance was performed in a humidified incubator at 37 °C with 5% CO2. Cells were passage when the culture has reached approximately 80 to 90% confluence. Cells were seeded at density of 6 × 10^3 on 96-well plates. Following overnight culture, the cells were then treated with increasing doses of compounds and incubated for 24 h. Following cell exposure to each drug for 24 h, 10 µL MTT reagent (Sigma Aldrich, Darmstadt, Germany) was added to each well. After 4 hours incubation (37 °C, 5% CO2), the medium was aspirated and the formazan produced in the cells appeared as dark crystals in the bottom of the wells. Next, DMSO (dissolving solution) was added to each wells. Then the optical density (OD) of solution was determined at 570 nm on micro plate reader (Spectra iD3 Max, Molecular Devices; San Jose, CA, USA). Viability (% of control) was determined by dividing A570 of experimental wells by of A570 of control wells × 100%.

[8] = Solubility in cosmetic solvents / macrogol formulations; assay type: physicochemical; details: typical cosmetic solvents / formulations used
Text: as §1

[9] = 2% (w/w) macrogol formulation F3 (DMSO 48%)
[10] = after 1 h irradiation at 500 W/m^2, formulation F3 (DMSO 48%)
[11] = 2% (w/w) macrogol formulation F1 (Triacetin 4.8%)
[12] = after 1 h irradiation at 500 W/m^2, formulation F1
[13] = 2% (w/w) macrogol formulation F2 (DMSO 4.8%)
[14] = after 1 h irradiation at 500 W/m^2, formulation F2 (DMSO 4.8%)

| Compound | Probable Transformation [1] | half-life at 20 µM [1] | microsomal CLint at 20 µM [1] | εmax [2] | λmax [2] | Absorption Range [2] | SPFin vitro [3, 9] | UVA PF [3, 9] | UVA/UVB Ratio [3, 9] | λc (critical wavelength) [3, 9] | melting point | λmax pre-irradiation [4] | % of initial AUC post-irradiation [4] | λmax post-irradiation [4] | % of Initial AUC [5, 10] | % of Initial SPFin vitro [5, 10] | % of Initial UVA PF [5, 10] | also measured |
| --- | --- | --- | --- | --- | --- | --- | --- | --- | --- | --- | --- | --- | --- | --- | --- | --- | --- | --- |
| CCOC(=O)CN1C(=O)N/C(=C\c2ccc(OC)cc2OC)C1=O [Compound 2d, Ethyl (Z)-2-(4-(2,4-dimethoxybenzylidene)-2,5-dioxoimidazolidin-1-yl)acetate] | O-dealkylation | 15 min | 59 µL/min/mg | 30700 M⁻¹ cm⁻¹ | 349 nm | 290–394 nm | 2.00 ± 0.11 | 4.48 ± 0.38 | 2.59 ± 0.09 | 386 nm | 197 to 198 °C | 349 | 100.96% | 354 | 58.87% | 75.69% | 51.45% | decrease of tested parameters (SPFin vitro, UVA PF, AUC) after irradiation ([5]; formulation with DMSO 48% (F3), extreme values): 41.1% |
| Cc1ccc(/C=C2/C(=O)C3(C)CCC2C3(C)C)cc1 (centres unmarked) [Compound 4-MBC, 4-methylbenzylidene camphor, reference compound] | – | – | – | 25550 M⁻¹ cm⁻¹ | 299 nm | 290–332 nm | – | – | – | – | – | 299 | 87.76% | 303 | – | – | – | viability at 24 h, 50 µM [6]: < 31%; UVA PF [3, 11]: 1.08 ± 0.1; UVA/UVB Ratio [3, 11]: 0.00 ± 0.00; λc (critical wavelength) [3, 11]: 316 nm; SPFin vitro ([3]; 2% (w/w) macrogol formulation F1 (Tween 20, PEG-400, PEG-1500, Triacetin 4.8%)): 5.59 ± 0.27; viability at 24 h, 50 µM [7]: < 36%; % of Initial AUC [5, 12]: 90.89%; % of Initial SPFin vitro [5, 12]: 91.05%; % of Initial UVA PF [5, 12]: 101.39% |
| CCOC(=O)CN1C(=O)N/C(=C\c2ccc(OC)c(OC)c2)C1=O [Compound 2e, Ethyl (Z)-2-(4-(3,4-dimethoxybenzylidene)-2,5-dioxoimidazolidin-1-yl)acetate] | O-dealkylation | 41 min | 21 µL/min/mg | 30740 M⁻¹ cm⁻¹ | 344 nm | 290–381 nm | 2.50 ± 0.08 | 4.77 ± 0.24 | 1.95 ± 0.02 | 379 nm | 198 to 200 °C | 344 | 97.8% | 351 | 41.99% | 56.00% | 38.99% | – |
| CCOC(=O)CN1C(=O)N/C(=C\c2ccccc2)C1=O [Compound 2a, Ethyl (Z)-2-(4-benzylidene-2,5-dioxoimidazolidin-1-yl)acetate] | – | – | – | 28460 M⁻¹ cm⁻¹ | 316 nm | 290–345 nm | – | – | – | – | 169 to 171 °C | 316 | 70.45% | 317 | 46.72% | 33.25% | 37.87% | SPFin vitro [3, 13]: 4.79 ± 0.02; UVA PF [3, 13]: 2.40 ± 0.01; UVA/UVB Ratio [3, 13]: 0.35 ± 0.00; λc (critical wavelength) [3, 13]: 339 nm; solubility (in words) [8]: only slightly soluble; decrease of AUC after irradiation [4]: ~30%; shift of λmax after irradiation [4]: 1 nm; improvement of the functional photostability ([5]; DMSO in formulation reduced from 48 to 4.8%): 31.1%; % of Initial AUC [5, 14]: 62.42%; % of Initial SPFin vitro [5, 14]: 55.49%; % of Initial UVA PF [5, 14]: 68.96%; percentage of photoisomer formation ([5]; two formulations differing in the content of DMSO (48 and 4.8%), which value belongs to which is not given): 48% |
| CCOC(=O)CN1C(=O)N/C(=C\c2ccc(OCC)cc2)C1=O [Compound 2c, Ethyl (Z)-2-(4-(4-ethoxybenzylidene)-2,5-dioxoimidazolidin-1-yl)acetate] | O-dealkylation | 33 min | 52 µL/min/mg | 35610 M⁻¹ cm⁻¹ | 336 nm | 290–376 nm | 3.16 ± 0.05 | 4.68 ± 0.02 | 1.36 ± 0.01 | 367 nm | 181 to 182 °C | 336 | 96.89% | 344 | 34.13% | 44.37% | 35.83% | – |
